Results: US5948884A, “Cyclosporin derivatives with anti-HIV effect” (priority 1995, dated 1999)
Converted amounts (≈) assume the structure as drawn.

How the values were obtained:
HIV-1 (strain IIIB) = conditions: MT4 cells infected with HIV-1 IIIB; p24 ELISA on third and fourth days after infection
Procedure: Test for Antiviral Activity
HIV-1 (strain IIIB) was adsorbed on the cells for 2 hours at 37°. The inoculum was then removed and the infected cells were transferred to tissue culture plates which contained the test compound at different concentrations. In this context, the virus inoculum was chosen such that the concentration of viral p24 antigen increased exponentially in the cell supernatant up to the fourth day after the infection. On the third and fourth days after the infection, the cell supernatants were analyzed by ELISA for p24 antigen. IC50 values were determined by comparing the p24 concentrations in the supernatant from the infected, substance-treated cells and in the supernatant from the untreated infected control cells.

HIV = conditions: relative to the most strongly active substances of EP 484 281; cited from earlier work

| Compound | IC50 (p24 antigen in cell supernatant) (HIV-1 (strain IIIB)) [µg/mL] | activity against HIV, times weaker than MeIle-4-cyclosporin or MeVal-4-cyclosporin (HIV) |
| --- | --- | --- |
| C/C=C/C[C@@H](C)[C@@H](O)[C@H]1C(=O)N[C@@H](CC)C(=O)N(C)[C@H](CO)C(=O)N(C)[C@@H](CC(C)(C)O)C(=O)N[C@@H](C(C)C)C(=O)N(C)[C@@H](CC(C)C)C(=O)N[C@@H](C)C(=O)N[C@H](C)C(=O)N(C)[C@@H](CC(C)C)C(=O)N(C)[C@@H](CC(C)C)C(=O)N(C)[C@@H](C(C)C)C(=O)N1C [3-N-methyl-(D)-serine-4-(gamma-hydroxy)-N-methylleucinecyclosporin] | 0.1 (≈ 0.0801 µM) |  |
| (gamma-hydroxy-N-methylleucine)cyclosporin |  | 5-6 times |
